For data set [1], the target named is T1, P450RAI-3 (Homo sapiens, UniProt Q6V0L0, F447L).
T1 sequence (Q6V0L0 1-522 F447L): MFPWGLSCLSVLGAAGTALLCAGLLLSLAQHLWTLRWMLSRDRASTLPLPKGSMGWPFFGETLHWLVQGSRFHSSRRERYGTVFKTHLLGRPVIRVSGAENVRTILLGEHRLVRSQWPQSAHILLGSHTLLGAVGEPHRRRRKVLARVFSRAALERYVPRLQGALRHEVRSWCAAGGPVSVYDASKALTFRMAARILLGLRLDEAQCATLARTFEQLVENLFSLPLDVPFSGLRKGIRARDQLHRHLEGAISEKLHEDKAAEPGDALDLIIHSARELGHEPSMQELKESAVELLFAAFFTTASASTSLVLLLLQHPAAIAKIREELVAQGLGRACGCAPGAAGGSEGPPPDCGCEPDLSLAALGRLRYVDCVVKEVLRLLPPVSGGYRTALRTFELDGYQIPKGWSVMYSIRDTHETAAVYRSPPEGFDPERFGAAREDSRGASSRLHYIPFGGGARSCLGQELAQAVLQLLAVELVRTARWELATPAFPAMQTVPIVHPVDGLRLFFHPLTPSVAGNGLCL
Description: ATRA and 9-cis-RA binding assay, Sf9-Bac-P450RAI-3 insect microsomes. The following applies: Kd, substrate binding to P450RAI-3, insect microsomes; Table 4 prints no unit, nM.

Data set [2] has as its target T1, P450RAI-3. Description: [3H]-RA-metabolism inhibition (substrate competition) in P450RAI-3 stable transfected Hela cells. The format is cell-based. More on the design: expressed in transfected cells. To be noted: 2 nM [3H]-RA, read-out: ID50, competition for P450RAI-3 [3H]-RA metabolism. On the procedure: The purpose of these experiments is to determine the specific substrates for P450RAI-3. […] The RA metabolism reaction was started by the addition of 50 ul of [^3H]-RA solution (20000 cpm, 2 nM final concentration). Cells were incubated for 3 hours in a humidified CO2 incubator at 37 degrees Celsius. The reaction was stopped by the addition of 5 ul of 10% acetic acid. Organic and aqueous soluble radio-labelled metabolites were extracted using the Bligh-Dyer procedure.

Data set [3] addresses T1, P450RAI-3. Description: ATRA / 9-cis-RA metabolism in pcDNA-P450RAI-3 transfected Cos-1 cells (Bligh-Dyer, HPLC). The data set is classed as cell-based. More on the design: expressed in transfected cells; host or cells: COS-1 (transient, pcDNA-P450RAI-3, Fugene). To be noted: 2 nM radio-labeled substrate, 3 hours. Here is the method:
Mammalian Cos-1 cells were transfected with either pcDNA-P450RAI-3 or pcDNA-control vector using Fugene™ (Roche diagnostic) according to the manufacturers directions. After 48 hours post-tranfection, cells were washed with PBS and assessed for ATRA-metabolism activity as described Briefly, transfected cells were incubated with radio-labeled ^3[H]-ATRA (18000 cpm, 2 nM) for 3 hours. Organic and Water-soluble metabolites were extracted using Bligh-Dyer procedure and radioactivity counted (FIG. 10).
HPLC analysis of the organic metabolites: the Bligh-Dyer organic button-layer was dried out and residues were suspended in HPLC solvent and then analyzed by HPLC as described in [White et al, PNAS, vol 97, pg 6403-6408], FIG. 11.
Mammalian Cos-1 cells were transfected with either pcDNA-P450RAI-3 or pcDNA-control vector according to the manufacturers directions using Fugene (Roche). After 48 hours post-tranfection, cells were washed with PBS and assessed for 9-cis-RA-metabolism activity as described using Bligh-Dyer procedure. Briefly, transfected cells were incubated with radio-labeled ^3[H]-9-cis-RA (38000 cpm, 2 nM) for 3 hours. Organic and Water-soluble metabolites were extracted using Bligh-Dyer procedure and radioactivity counted, FIG. 19.

Data set [4] addresses T1, P450RAI-3. Description: LC/MS analysis of ATRA and 9-cis-RA metabolism in Hela-P450RAI-3 stable cells. To be noted: 5 hours. On the procedure:
After 5 hours incubation at 37° C., cells were acidified with acetic acid and total retinoids were extracted using Ethyl acetate method. The organic upper layer was pooled and evaporated in speed-vacuum, and dried residues were dissolved in HPLC mobile solvent and analyzed in LC/MS.
The HPLC system consisted of a waters alliance 2690 separations module. Chromatography was obtained on an Eclipse X DB-C18 reverse phase column (5 um, 2.1×150 mm from HP). A gradient elution program was used using acetonitrile, water and 10% acetic acid. The flow was held at 0.2 ml/min.
Mass Spectrometry condition used for this work consisted of a Micro-mass Quatro Ultima Tandem triple quadruple mass spectrometer equipped with electrospray interface (ESI) and operated in a negative mode.

The target of data set [5] is T1, P450RAI-3. As to the kind of experiment: RA-metabolism cell based assay in P450RAI-3-infected Sf9 cells. More on the design: expressed in transfected cells. To be noted: 2 nM [3H]-RA. On the procedure: (§1) Recombinant baculovirus expressing either P450RAI-3 or CYP26B (Bac-P450RAI-3 or Bac-CYP26B or CYP26B) was prepared and titrated by end-point dilution and infection of Sf9 cells in 96-well format. Baculovirus expressing vector was co-transfected into Sf9-insect cells. Infected cells were assessed for RA-metabolism after 72 hours post transfection using RA-metabolism cell based assay as follows: the RA-metabolism reaction was started by adding 50 μl of [^3H]-RA solution (20000 cpm, 2 nM final concentration) using an automatic repeating-pipette.
(§2) Cells were incubated for 3 hours. The reaction was stopped by adding 5 μl of 10% acetic acid. Organic and aqueous soluble radio-labelled metabolites were extracted using the Bligh-Dyer procedure.

For data set [6], the target named is T2, CYP26-B (Homo sapiens, UniProt Q9NR63).
T2 sequence (Q9NR63 1-512): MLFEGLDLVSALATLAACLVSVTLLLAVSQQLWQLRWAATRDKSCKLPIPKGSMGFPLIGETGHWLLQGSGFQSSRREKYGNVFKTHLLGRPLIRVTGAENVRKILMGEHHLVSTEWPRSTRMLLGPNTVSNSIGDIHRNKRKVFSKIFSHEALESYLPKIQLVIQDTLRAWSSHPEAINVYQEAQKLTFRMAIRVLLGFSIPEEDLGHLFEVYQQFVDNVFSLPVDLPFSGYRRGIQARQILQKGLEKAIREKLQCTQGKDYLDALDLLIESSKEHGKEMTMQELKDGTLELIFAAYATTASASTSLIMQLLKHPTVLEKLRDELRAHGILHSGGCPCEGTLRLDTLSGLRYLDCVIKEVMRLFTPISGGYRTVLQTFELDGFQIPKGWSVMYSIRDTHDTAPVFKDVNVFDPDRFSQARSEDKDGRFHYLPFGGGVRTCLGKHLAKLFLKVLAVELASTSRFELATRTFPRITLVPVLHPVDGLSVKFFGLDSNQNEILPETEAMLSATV
As to the kind of experiment: [3H]-RA-metabolism inhibition, transient Cos-CYP26-B cell-based assay. The following applies: at lower concentrations.

Data set [7] has as its target T2, CYP26-B. As to the kind of experiment: RA-metabolism cell based assay in CYP26-B-infected Sf9 cells. The following applies: 2 nM [3H]-RA. Here is the method:
as §1, §2

The Kd is the constant that tells how readily two partners part at equilibrium. Read a low Kd as a tighter complex. In turn, `CC1=C(/C=C/C(C)=C/C=C/C(C)=C/C(=O)O)C(C)(C)CCC1` [ATRA, all-trans-retinoic-acid] yielded a Kd on P450RAI-3 [1] of 45 nM. Besides, the IC50 at P450RAI-3 [2] stood at 300 nM. Besides, at P450RAI-3 [3], the “metabolism by P450RAI-3” value is given as “efficiently metabolize ATRA to polar metabolites”. Besides, the “metabolites formed by P450RAI-3” value on P450RAI-3 [4] was “hydroxy and oxo-metabolites”. At P450RAI-3 [5], the “metabolism by P450RAI-3-infected Sf9-cells” value is “metabolized ATRA and converted it to water-soluble metabolites”. The “competition / inhibition of CYP26-B” value on CYP26-B [6] is given as “competed”. Besides, at CYP26-B [7], the “metabolism by CYP26-B-infected Sf9-cells” value is “metabolized ATRA and converted it to water-soluble metabolites”.

The values are drawn from patent publication US7335756B2, “Retinoic acid metabolizing cytochrome P450” (Cytochroma Inc., priority 2001, dated 2008).
